Assays:
[1] = molecular target: T1, Transcriptional coactivator YAP1 (Homo sapiens, UniProt P46937); assay: Inhibition of YAP (unknown origin) incubated for 24 hrs by Promega Dual-Luciferase Reporter Assay
[2] = molecular target: T1, Transcriptional coactivator YAP1; assay: Inhibition of YAP in HEK293T cells incubated for 24 hrs by Promega Dual-Luciferase Reporter Assay

T1 sequence (P46937 whole entry): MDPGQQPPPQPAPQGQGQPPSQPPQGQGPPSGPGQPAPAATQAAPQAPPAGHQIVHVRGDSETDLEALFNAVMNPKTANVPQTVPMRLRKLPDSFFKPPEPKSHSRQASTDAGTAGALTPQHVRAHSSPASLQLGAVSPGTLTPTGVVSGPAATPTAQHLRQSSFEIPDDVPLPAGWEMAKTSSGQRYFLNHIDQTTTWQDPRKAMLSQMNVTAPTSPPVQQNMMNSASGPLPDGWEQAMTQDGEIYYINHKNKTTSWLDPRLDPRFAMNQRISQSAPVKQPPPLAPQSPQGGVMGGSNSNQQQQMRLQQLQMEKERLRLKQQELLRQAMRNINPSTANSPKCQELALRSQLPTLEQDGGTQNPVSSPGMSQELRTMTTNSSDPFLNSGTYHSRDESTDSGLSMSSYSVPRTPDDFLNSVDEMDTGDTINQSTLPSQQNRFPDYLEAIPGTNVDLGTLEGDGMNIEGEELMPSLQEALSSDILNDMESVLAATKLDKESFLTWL

Structure (SMILES) | IC50 [1] [nM] | IC50 [2] [nM]
CNS(=O)(=O)c1ccc(Nc2ccc(C(F)(F)F)cc2)c(-c2cn(C)cn2)c1 | 1 | 
COC(=O)c1cc(S(N)(=O)=O)ccc1NC1CCCCC1 | 454 | 
CC(NC(=O)c1cc2nc(N(C)C)n(-c3ccc(Br)cc3)c2s1)c1ccccn1 (stereo unspecified) | 391 | 
CC(C)NC(=O)c1ccc2c(Oc3cccc(Cl)c3)cccc2c1 [5-(3-chlorophenoxy)-N-isopropyl-2-naphthamide] |  | < 100

Results, then the compound that gave them:

IC50 [1] [nM] | IC50 [2] [nM] | Structure (SMILES)
 | < 100 | N#CCNC(=O)c1ccc2c(Oc3ccc(C(F)(F)F)cc3)cccc2c1 [N-(cyanomethyl)-5-(4-(trifluoromethyl)phenoxy)-2-naphthamid]
 | < 100 | CS(=O)(=O)NC(=O)c1ccc2c(Oc3ccc(C(F)(F)F)cc3)cccc2c1 [N-(methylsulfonyl)-5-(4-(trifluoromethyl)phenoxy)-2-naphthamide]
